Legend:
Type in all cases: cell-based, human
[1] = tested on: cancer organoids derived from colorectal cancer patients; assay: Overall efficacy (organoid area change, HCS) in co-culture of cancer organoids, CD8+ T cells and M1; details: Groups 1, 3, 6 and 8: cancer organoids:M1 fixed 1:1, CD8+ T cell ratio changes; 10 nM; 72 hours
From the text: In order to confirm whether the screening system composed of cancer organoids, CD8+ T cells and M1 as confirmed in Example 1.1 can be used to evaluate the efficacy of a drug, the death rate of cancer organoids by phagocytosis was observed after treating the system with an anti-PD-L1 antibody atezolizumab previously used as an immuno-anticancer drug, anti-CD47 antibody and a combination thereof.
Atezolizumab activates CD8+ T cells by binding to PD-L1 on cancer cells and blocking the PD-1/PD-L1 mechanism, and anti-CD47 antibody activates macrophages by binding to […] and blocking the SIRP-a/CD47 mechanism. […]
Then, they were co-cultured, and treated with 10 nM of Atezolizumab (Selleck, #A2004) which is anti-PD-L1 antibody and/or 10 nM of anti-CD47 antibody. After that, the death rate of cancer organoids or M1 was analyzed at each ratio. Herein, the ratio of the CD8+ T cells and M1 was tested in a narrower range than the ratio applied in Example 1.1, and the changes in organoid area for 72 hours after drug treatment was analyzed by HCS (High-Content Screening). After 72 hours from drug treatment, the overall efficacy was evaluated by calculating the change in the organoid area of the drug-treated group compared to the organoid area of the non-treated group.

lung cancer organoids [2] = assay: Growth and death rate of lung cancer organoids co-cultured with TILs
Procedure: (§1) Specifically, the inventors set a mixing ratio satisfying co-culture conditions under which (1) cancer organoids grow properly and (2) drug efficacy is well observed. Cancer organoids were prepared using cancer cells isolated from tumor tissues of lung cancer or colorectal cancer patients, and TILs obtained by co-culture with cancer organoids for 14 days according to Example 1.1 were used.
(§2) Herein, the number of organoids or TILs was set to 1 for 5.0×10^3.
(§3) In addition, for the co-cultures of cancer organoids and TILs according to the ratio above, those not treated with the drug were set as the control group (hereinafter referred to as ‘drug-untreated group’), and those treated with atezolizumab, which is currently marketed and used for a cancer treatment, as an exemplary drug were set as the experimental group (hereinafter referred to as ‘drug-treated group’). After co-culturing for 72 hours, the growth rate was measured immediately after the start of the co-culture (0 h), after 24 hours (24 h), after 48 hours (48 h) and after 72 hours (72 h), respectively, and the death rate was analyzed by the following method through the measured growth rate: Cancer organoid death rate (%)=[1−(growth rate of cancer organoids in the drug-treated group*)/(growth rate of cancer organoids in the drug-untreated group**)]×100

[3] = tested on: colorectal cancer organoids; assay: Growth and death rate of colorectal cancer organoids co-cultured with TILs
Procedure: as §1, §2, §3

[4] = tested on: colorectal cancer organoids; assay: Death rate of colorectal cancer organoids co-cultured with CD8+ T cells and Tregs; details: 72 h
Procedure: (§4) Herein, the number of organoids or cells was set to 1 for 5.0×10^3.
(§5) Cancer organoids were prepared using stem cells isolated from tumor tissue of colorectal cancer or lung cancer patients. The isolated stem cells were mixed with ECM (extracellular matrix) to grow into a 3D structure to make a dome, and then organoids were formed and used through culture. CD8+ T cells and Tregs were obtained from blood obtained from colorectal cancer or lung cancer patients. Immune cells present in the blood were differentiated, and CD8+ and Treg cells were isolated from the differentiated immune cells using a MACS (magnetic activated cell sorting) method.
(§6) Specifically, for the co-cultures of cancer organoids, CD8+ T cells and Tregs according to the mixing ratio in Table 6 above, those not treated with the drug were set as the control group (hereinafter referred to as ‘drug-untreated group’), and those treated with an atezolizumab targeting CD8+ T cells or an anti-TIGIT antibody targeting CD8+ T cells or Tregs as an exemplary drug were set as the experimental group (hereinafter referred to as ‘drug-treated group’). After co-culturing them for 72 hours, the growth rate was measured after 72 hours of drug treatment (72 h), and the death rate was analyzed by the following method through the measured growth rate.

lung cancer organoids [5] = assay: Death rate of lung cancer organoids co-cultured with CD8+ T cells and Tregs; details: 72 h
Procedure: as §4, §5, §6

[6] = tested on: colorectal cancer organoids; assay: Growth and death rate of colorectal cancer organoids co-cultured with CD8+ T cells and DCs
Procedure: (§7) Specifically, in order to establish a co-culture system in which cancer organoids, cytotoxic T cells (hereinafter referred to as ‘CD8+ T cells’) and dendritic cells (hereinafter referred to as ‘DC’) coexist, the inventors set a mixing ratio satisfying co-culture conditions under which (1) cancer organoids grow properly and (2) drug efficacy is well observed. […] Herein, the number of organoids or cells was set to 1 for 5.0×10^3.
(§8) Cancer organoids were prepared to have a 3D structure by isolating colorectal cancer or lung cancer tissues obtained from patients into single cells and culturing them together with ECM (extracellular matrix). The formed cancer organoids were confirmed to be tumors through pathological analysis, and used after being isolated into single cells using Tryp-LE.
(§9) CD8+ T cells isolated from PBMCs were used. PBMCs were isolated from blood obtained from donors by using Ficoll, and CD8+ T cells were isolated through MACS after a T cell activation process.
(§10) DCs differentiated from iPSCs were used, and DCs were differentiated from the H9 cell line using a general method known in the art.
(§11) Specifically, for the co-cultures of cancer organoids, CD8+ T cells and DCs according to the mixing ratio in Table 7 above, those not treated with the drug were set as the control group (hereinafter referred to as ‘drug-untreated group’), and those treated with an atezolizumab targeting CD8+ T cells as an exemplary drug were set as the experimental group (hereinafter referred to as ‘drug-treated group’). Drugs were treated immediately after the start of co-culture, and the growth rate of cancer organoids was measured immediately after the start of the co-culture (0 h), after 24 hours (24 h), after 48 hours (48 h) and after 72 hours (72 h), respectively. The death rate was analyzed by the following method through the measured growth rate.

lung cancer organoids [7] = assay: Growth and death rate of lung cancer organoids co-cultured with CD8+ T cells and DCs
Procedure: as §7, §8, §9, §10, §11

[8] = lung cancer organoids:TILs 1:0.5
[9] = lung cancer organoids:TILs 1:1.5
[10] = colorectal cancer organoids:TILs 1:0.5
[11] = colorectal cancer organoids:TILs 1:1.5

For atezolizumab, the “growth inhibition and death of cancer organoids (overall efficacy)” value [1] was “high”, the “death rate of lung cancer organoids” value (lung cancer organoids [2]; [8]) was “about 5%” and the “response of lung cancer organoids (growth rate and death rate vs control group)” value (lung cancer organoids [2]; [8]) was “did not respond to the drug”. The “anticancer effects on lung cancer organoids (growth, death)” value (lung cancer organoids [2]; [9]) was “inhibiting the growth and increasing death”, the “death rate of lung cancer organoids” value (lung cancer organoids [2]; [9]) was “about 20%” and the “death rate of lung cancer organoids” value (lung cancer organoids [2]; lung cancer organoids:TILs 1:3) was “about 5%”. For the same substance, the “death rate of colorectal cancer organoids” value [3, 10] was “about 5%”, the “response of colorectal cancer organoids (growth rate and death rate vs control group)” value [3, 10] was “did not respond to the drug” and the “anticancer effects on colorectal cancer organoids (growth, death)” value [3, 11] was “inhibiting the growth and increasing death”. The “death rate of colorectal cancer organoids” value [3, 11] was “about 10%”, the “death rate of colorectal cancer organoids” value ([3]; colorectal cancer organoids:TILs 1:3) was “about 5%” and the “death rate of cancer organoids, maximum level” value (“death rate … maximum level” for short) ([4]; colorectal cancer organoids:CD8+ T cells 1:1, Treg 0.5 to 3) was “about 10%”. For the same substance, the “death rate of cancer organoids” value ([4]; colorectal cancer organoids:CD8+ T cells 1:3, with Tregs) was “about 25%”, the “death rate of cancer organoids” value ([4]; colorectal cancer organoids:CD8+ T cells 1:3, without Tregs) was “about 26%” and the “death rate of cancer organoids” value ([4]; colorectal cancer organoids:Tregs 1:3, without CD8+ T cells) was “about 2%”. For the same substance, the “death rate … maximum level” value (lung cancer organoids [5]; lung cancer organoids:CD8+ T cells 1:1, Treg 0.5 to 3) was “about 10%”, the “death rate of cancer organoids” value (lung cancer organoids [5]; lung cancer organoids:CD8+ T cells 1:3, with Tregs) was “about 25%” and the “death rate of cancer organoids” value (lung cancer organoids [5]; lung cancer organoids:CD8+ T cells 1:3, without Tregs) was “about 27%”. For the same substance, the “death rate of cancer organoids” value (lung cancer organoids [5]; lung cancer organoids:Tregs 1:3, without CD8+ T cells) was “about 1%”, the “death rate … maximum level” value ([6]; colorectal cancer organoids:CD8+ T cells 1:0.5, DC 0.5 to 5, 72 h) was “about 5%” and the “maximum death rate of cancer organoids” value ([6]; colorectal cancer organoids:CD8+ T cells 1:1, DC 0.5 to 5, 72 h) was “about 10%”. The “growth of cancer organoids” value ([6]; colorectal cancer organoids:CD8+ T cells:DCs 1:0.5:0.5 to 5) was “did not significantly inhibit the growth”, the “growth of cancer organoids” value ([6]; colorectal cancer organoids:CD8+ T cells:DCs 1:1 to 3:0.5 to 5) was “inhibited the growth” and the “death rate … maximum level” value (lung cancer organoids [7]; lung cancer organoids:CD8+ T cells 1:0.5, DC 0.5 to 5, 72 h) was “about 5%”. For the same substance, the “maximum death rate of cancer organoids” value (lung cancer organoids [7]; lung cancer organoids:CD8+ T cells 1:1, DC 0.5 to 5, 72 h) was “about 10%”, the “growth of cancer organoids” value (lung cancer organoids [7]; lung cancer organoids:CD8+ T cells:DCs 1:0.5:0.5 to 5 or 1:1:0.5 to 1) was “did not significantly inhibit the growth” and the “growth of cancer organoids” value (lung cancer organoids [7]; lung cancer organoids:CD8+ T cells:DCs 1:1:5 or 1:3:0.5 to 5) was “inhibited the growth”.

Source: US20240219373A1, “METHOD FOR EVALUATING EFFICACY OF ANTICANCER DRUG OR SCREENING ANTICANCER DRUG” (ORGANOIDSCIENCES LTD., priority 2021, published 2024)
